From publication PMC7413516, “Antidepressant-like activity and safety profile evaluation of 1H-imidazo[2,1-f]purine-2,4(3H,8H)-dione derivatives as 5-HT1A receptor partial agonists” (PLoS ONE, 2020)
“And” between values parts separate entries of the source, which are not always exact repeats. Equal entries are not always repeated. Marks after values point to notes of the source that are not given here.

Experiments:
[1] = molecular target: T1, human serotonin 5-HT1AR (Homo sapiens, UniProt P08908); parameters: host or cells: CHO-K1; method as in Pytka et al. [14]; details: cAMP, CHO-K1 cells; ref Pytka et al. [14]; cited from earlier work
T1 sequence (P08908 1-422): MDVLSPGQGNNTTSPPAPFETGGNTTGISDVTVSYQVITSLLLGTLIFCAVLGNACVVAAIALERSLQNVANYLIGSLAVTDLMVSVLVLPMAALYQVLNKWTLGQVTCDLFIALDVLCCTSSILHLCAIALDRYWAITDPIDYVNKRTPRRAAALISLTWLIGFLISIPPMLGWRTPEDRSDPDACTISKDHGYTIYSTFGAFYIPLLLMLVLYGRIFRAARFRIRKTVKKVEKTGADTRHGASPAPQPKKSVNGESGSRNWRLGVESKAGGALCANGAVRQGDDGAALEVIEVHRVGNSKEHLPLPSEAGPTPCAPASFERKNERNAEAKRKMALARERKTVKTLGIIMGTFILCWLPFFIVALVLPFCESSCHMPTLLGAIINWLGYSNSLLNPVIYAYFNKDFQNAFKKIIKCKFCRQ

[2] = molecular target: T2, human serotonin 5-HT1A receptor (Homo sapiens, UniProt P08908); parameters: host or cells: CHO-K1; method as in Pytka et al. [14]; details: pERK1/2, CHO-K1 cells; ref Pytka et al. [14]; cited from earlier work
T2 sequence (P08908 1-422): T1 sequence (P08908 1-422)

[3] = molecular target: T3, human 5-HT1AR (Homo sapiens, UniProt P08908); parameters: TEV protease site; Gal4-VP16 transcription factor; host or cells: U2OS (Tango GPCR-bla U2OS parental line); method as in Pytka et al. [14]; details: β-arrestin, U2OS cells; ref Pytka et al. [14]; cited from earlier work
T3 sequence (P08908 1-422): T1 sequence (P08908 1-422)

[4] = system: mice; assay: Forced swim test (FST) in mice; format: in vivo, Swiss albino mice; details: given alone, 0.3 mg/kg s.c., 45 min before test
Source text: (§1) The investigated compounds AZ-853 (8-(4-(4-(2-fluorophenyl)piperazin-1-yl)butyl)-1,3-dimethyl-1H-imidazo[2,1-f]purine-2,4(3H,8H)-dione and AZ-861 (1,3-dimethyl-8-(4-(4-(3-(trifluoromethyl)phenyl)piperazin-1-yl)butyl)-1H-imidazo[2,1-f]purine-2,4(3H,8H)-dione) were synthesised in the Department of Medicinal Chemistry, Faculty of Pharmacy, Jagiellonian University, and their synthesis was described earlier. AZ-853 and AZ-861 were suspended in 1% aqueous solution of Tween 80, and WAY-100635 (Sigma, Germany) was dissolved in 0.9% saline. In acute experiments, the selected compounds AZ-853 (0.156–2.5 mg/kg) and AZ-861 (0.625–2.5 mg/kg) were injected i.p. once 60 min before tests, whereas WAY-100635 (0.3 mg/kg) was administered subcutaneously (s.c.) 45 min before the test. […] In chronic experiments, AZ-853 and AZ-861 were administered i.p. once a day (between 9:00 AM and 10:00 AM) for 16 consecutive days at the minimum active doses selected from FST experiment, i.e. 0.625 and 1.25 mg/kg, respectively. All compounds were administered to mice at a volume of 10 ml/kg and to rats at a volume of 2 ml/kg. The control groups received 1% aqueous solution of Tween 80.
The experiment was carried out according to the method of Porsolt et al.. Swiss albino mice were individually placed in a glass cylinder (25 cm high; 10 cm in diameter) containing 10 cm of water maintained at 23–25°C, and were left there for 6 min. The total duration of immobility was recorded during the last 4 min of a 6-min. A mouse was regarded as immobile when it remained floating on the water, making only small movements to keep its head above it.
(§2) The Swiss albino mice were used in the experiment. AZ-853 and AZ-861 were injected once daily for 16 consecutive days. On the 1st and 15th day the administration of the compounds, 18-h spontaneous animal activity was registered (see below). FST, as described earlier, was performed on the 14th day just before the next treatment. To ensure that the effects observed in FST are not the result of increased motility of animals, on the 13th day, just before the next administration, the locomotor activity was measured as described earlier, from 2 to 6 min after test start, i.e. in the period identical to the duration of FST. Blood and organ collection was performed on the 17th day at 24 h after the last dose and fasting.

[5] = system: mice; assay: Locomotor activity (Opto M3 activity monitor) in mice; format: in vivo, Swiss albino mice
Source text: as §1, with “[…].” for “All compounds were administered to mice at a volume of 10 ml/kg and to rats at a volume of 2 ml/kg.”
Locomotor activity was recorded with an Opto M3 multi-channel activity monitor (MultiDevice Software v.1.3, Columbus Instruments). The Swiss albino mice were individually placed in plastic cages (220 × 120 × 130 mm) for 30 min habituation period, and then the crossings of each channel (ambulation) were counted from […] to 6 min, that is the time equal to the observation period in FST. The cages were cleaned up with 70% ethanol after each mouse.
as §2, with “[…].” for “On the 1st and 15th day the administration of the compounds, 18-h spontaneous animal activity was registered (see below).”

| Compound | Emax (%) ± SEM, agonist mode [1] | Emax (%) ± SEM, agonist mode [2] | Emax (%) ± SEM, agonist mode [3] | effect on immobility in FST [4] | effect on spontaneous locomotor activity, acute administration ([5]; 4 min period identical to FST, AZ-853 0.625, 1.25, 2.5 mg/kg, AZ-861 1.25 mg/kg, WAY-100635 0.3 mg/kg alone or combined) | Number of movements (individual animals) ([5]; acute, WAY-100635 0.3 mg/kg alone, 3 to 6 min, raw data, 0.3 mg/kg) | Number of movements (mean) ([5]; acute, WAY-100635 alone 0.3 mg/kg s.c., 3 to 6 min) |
| --- | --- | --- | --- | --- | --- | --- | --- |
| COc1ccccc1N1CCN(CC(C(=O)NC(C)(C)C)c2ccccc2)CC1 (stereo not shown) [WAY-100135] | 2±0.5^c % | 2±1.0^c % | 1±0.5^c % |  |  |  |  |
| COc1ccccc1N1CCN(CCN(C(=O)C2CCCCC2)c2ccccn2)CC1 [WAY-100635, reference compound] |  |  |  | had no effect on immobility | did not change the locomotor activity | 130 and 88 and 93 and 242 and 100 and 107 | 122.9 |
